Literature values, collected in US9084801B2, “Use of an omega-3 lipid-based emulsion following ischemic injury to provide protection and recovery in human organs” (THE TRUSTEES OF COLUMBIA UNIVERSITY IN THE CITY OF NEW YORK, priority 2005, dated 2015).

Columns and labels:
[1] = tested on: adult Sprague-Dawley rats, kainate-induced seizures; details: intravenous, given before and/or after neurologic insult
[2] = tested on: adult Sprague-Dawley rats, global ischemia via four vessel occlusion; details: intravenous, given before and/or after neurologic insult

CC/C=C\C/C=C\C/C=C\CCCCCCCC(=O)O [α-linolenic acid]
protection in kainate-induced seizures [1]: protective
protection in global ischemia [2]: protective
